Measured values as given in patent publication US9017644B2, “Methods of treating autoimmune disorders and/or inflammatory disorders” (priority 2008, dated 2015).

Assays:
[1] = system: developing type II collagen arthritis; test: Rat collagen arthritis model, treatment alone or in combination with etanercept (Example 5); assay type: in vivo; details: for % decrease in ankle diameter verses disease control, drug alone: day 17
Excerpt: (§1) Rat collagen induced arthritis is an experimental model of polyarthritis that has been widely used for preclinical testing of numerous anti-arthritic agents. Rat type II collagen arthritis results when rats are immunized against homologous or heterologous type II collagen. […] As used herein “significant” means that p≦0.05. Unless specified as “normal control” or “disease control” reference to “animal” means a rat with developing type II collagen arthritis.
Bovine Type II collagen (Sigma) was diluted with 0.1N acetic acid to a concentration of 4 mg/ml. and emulsified with an equal volume of Freund's incomplete adjuvant (Sigma). Female Lewis rats (Charles River) were randomized by weigh into 10 study groups Table 3 identifies the groups that were used for evaluation of efficacy and Table 4 identifies the groups used for evaluation of toxicity.
Animals were anesthetized and immunized at the base of the tail and two sites on the back on day 0 and day 6. Animals were weighed on days 0, 3, 9-24. […] Treatment was administered either alone or in combination with etanercept, (1 mg/kg) dosed subcutaneously on days 9, 12 and 15. […] The remaining 4 animals were sacrificed for necropsy on day 16.

[2] = system: developing type II collagen arthritis; test: Rat collagen arthritis model, dose responsive efficacy, IV or SC 2x/week (Example 4); assay type: in vivo; details: IV 2x/week, read-out: average ED50 value for efficacy (AUC+Final Paw Weight)
Excerpt: as §1
(§2) Bovine Type II collagen (Sigma) was diluted with 0.1N acetic acid to a concentration of 4 mg/ml. and emulsified with an equal volume of Freund's incomplete adjuvant (Sigma).
(§3) The rats were anesthetized and given collagen injections spread over 3 subcutaneous sites on back on day 0 and day 6. […] Rats were weighed on days 0, 3, 6, and 9-18 of the study, and caliper measurements of ankles were taken every day beginning on day 9 (or day 0 of arthritis). After final body weight measurement on day 18, animals were euthanized, blood was drawn for serum (for clinical chemistries) and CBC analysis and tissues were collected. No clinical chemistry or CBC analysis was done for groups 5s and 12s, however these groups were sampled for drug levels for pharmacokinetic analysis.

[3] = Lewis, rat, in vivo, 18 day
Excerpt: as §3
Complete Blood Counts (CBC) and Clinical Chemistries were evaluated for each group.

[4] = Observation on high dose MTX dosing preparation; assay type: physicochemical; details: 0.75 mg/kg dose preparation
[5] = system: developing type II collagen arthritis; test: Rat collagen arthritis model, prophylactic IV treatment 3x/week, day 0-16 (Example 3); assay type: in vivo
Excerpt: as §1, §2
The rats were anesthetized and given collagen injections spread over 3 subcutaneous sites on back on day 0 and day 6.

[6] = batches 70 mg/kg, methotrexate 0.2 mg/kg, FIG. 5

## CN(Cc1cnc2nc(N)nc(N)c2n1)c1ccc(C(=O)N[C@@H](CCC(=O)O)C(=O)O)cc1 [MTX, Methotrexate]
[1]; 0.25 mg/kg PO 2x/week
  % decrease in ankle diameter verses disease control, drug alone: 52%
[1]; ATI-101 5, 20 and 65 mg/kg, MTX 0.25 mg/kg
  decreases in ankle diameter from disease control, alone or in combination with etanercept: Significant decreases
[2]
  ED50: 0.25 mg/kg
[3]; 0.5 mg/kg
  therapeutic index, considering bone marrow suppression at 0.5 mg/kg: less than 2
[3]; iv
  dose value for life threatening toxicity (bone marrow suppression): 0.75 mg/kg
[4]
  behaviour of high dose preparation in solution: did not remain completely in solution
[5]; Batch 1 and Batch 2 70 mg/kg, MTX 0.2 mg/kg, IV 3x/week, 17 day study
  inhibition of ankle diameter AUC as compared to disease controls: 54%
[5]; Batch 1 and Batch 2 70 mg/kg, MTX 0.2 mg/kg, IV 3x/week, day 17
  inhibition of final paw weights as compared to disease controls: 46%
[5]; [6]
  ankle cartilage damage, representative photomicrograph: minimal
  ankle pannus and bone destruction, representative photomicrograph: minimal
  ankle synovitis, representative photomicrograph: moderate

## etanercept
[1]; 1 mg/kg SC days 9, 12, 15
  % decrease in ankle diameter verses disease control, drug alone: 37%
